Data: patent US20240108753A1, “NUCLEIC ACID DELIVERY” (NUNTIUS THERAPEUTICS LIMITED, priority 2021, published 2024)

Experiment: Hydrodynamic size, polydispersity index and zeta potential of dendrimer, lipid and mRNA complexes
Type: physicochemical
Conditions: N:P 0.16:1; DOTMA/DOPE w/w 10:1 to mRNA
Method: The hydrodynamic size, polydispersity index and Zeta potential was determined for a set of the dendrimers disclosed in Tables 1 and 2.

Substance	Polydispersity Index (PDI)	Zeta Potential [mV]
(LR)8(KRL)4(KRL)2KA-NH2 [KAG1,2-RL, 3-LR]	0.136	47
(lR)8(KrL)4(kRl)2KGSC-NH2 [G1-Rl, 2-rL, 3-lR]	0.22	42
(R)8(KR)4(KR)2KRHC-NH2 [RHCG1,2,3-R]	0.173	43
(LRLR)8(KLRLR)4(KLRLR)2KGSC-NH2 [G1,2,3-LRLR]	0.133	45
(LR)8(KRL)4(KRL)2KRHC-NH2 [RHCG1,2-RL,3-LR]	0.11	44
(LR)8(DabRL)4(DabRL)2DabGSC-NH2 [DabG1,2-RL, 3-LR]	0.117	34
(LR)8(KR)4(KRLR)2KRHC-NH2 [RHCG1-RLR, 2-R, 3-LR]	0.136	41
(MR)8(KRC)4(KRC)2KGSC-NH2 [G1-RC, 2-RC, 3-MR]	0.148	43
(LR)8(KRL)4(KRE)2KGSC-NH2 [G1-RE, 2-RL, 3-LR]	0.096	45
(RLR)2KRHC-NH2 [RHCG1-RLR]	0.363	41
(BR)8(KRB)4(KRX)2KGSC-NH2 [G1-RX, 2-RB, 3-BR]	0.108	41
(LR)8(KRL)4(KRL)2KYM-NH2 [YMG1,2-RL, 3-LR]	0.116	35
(lr)8(Krl)4(Krl)2Kgsc-NH2 [LK-G1,2-rl, 3-lr]	0.16	45
(FR)8(KRQ)4(KRW)2KGSC-NH2 [G1-RW, 2-RQ, 3-FR]	0.146	37
(RL)8(KLR)4(KLR)2KGSC-NH2 [G1,2-LR,3-RL]	0.144	32
(HK)8(KKH)4(KKL)2KGSC-NH2 [G1-KL, 2-KH, 3-HK]	0.237	35
(LR)8(KRL)4(KRL)2KRYM-NH2 [RYMG1,2-RL, 3-LR]	0.137	43
(LRLR)4(KLRLR)2KGSC-NH2 [G1,2-LRLR]	0.181	41
(LRLR)2KGSC-NH2 [G1-LRLR]	0.264	40
(LR)8(KR)4(KRLRL)2KRHC-NH2 [RHCG1-RLRL, 2-R, 3-LR]	0.131	43
(QR)8(KRT)4(KRY)2KGSC-NH2 [G1-RY, 2-RT, 3-QR]	0.16	42
(lr)8(krl)4(krl)2kgsc-NH2 [D-G1,2-rl, 3-lr]	0.148	43
(R)8(KRL)4(KRLR)2KRHC-NH2 [RHCG1-RLR, 2-RL, 3-R]	0.219	36
(RL)8(KRL)4(KLR)2KGSC-NH2 [G1-LR,2,3-RL]	0.136	41
(RLR)4(KRLR)2KRHC-NH2 [RHCG1,2-RLR]	0.154	39
(YR)8(KRT)4(KRQ)2KGSC-NH2 [G1-RQ, 2-RT, 3-YR]	0.135	41
(WR)8(KRM)4(KRF)2KGSC-NH2 [G1-RF, 2-RM, 3-WR]	0.125	41
(LR)8(KRL)4(KRL)2KRFW-NH2 [RFWG1,2-RL, 3-LR]	0.152	39

Same assay, conditions: N:P 8:1; DOTMA/DOPE w/w 10:1 to mRNA

Substance	Polydispersity Index (PDI)	Zeta Potential [mV]
(LR)8(KRL)4(KRL)2KA-NH2 [KAG1,2-RL, 3-LR]	0.184	51
(lR)8(KrL)4(kRl)2KGSC-NH2 [G1-Rl, 2-rL, 3-lR]	0.241	56
(R)8(KR)4(KR)2KRHC-NH2 [RHCG1,2,3-R]	0.396	62
(LRLR)8(KLRLR)4(KLRLR)2KGSC-NH2 [G1,2,3-LRLR]	0.287	50
(LR)8(KRL)4(KRL)2KRHC-NH2 [RHCG1,2-RL,3-LR]	0.363	50
(LR)8(DabRL)4(DabRL)2DabGSC-NH2 [DabG1,2-RL, 3-LR]	0.286	57
(LR)8(KR)4(KRLR)2KRHC-NH2 [RHCG1-RLR, 2-R, 3-LR]	0.439	59
(MR)8(KRC)4(KRC)2KGSC-NH2 [G1-RC, 2-RC, 3-MR]	0.19	56
(LR)8(KRL)4(KRE)2KGSC-NH2 [G1-RE, 2-RL, 3-LR]	0.158	53
(RLR)2KRHC-NH2 [RHCG1-RLR]	0.766	–
(BR)8(KRB)4(KRX)2KGSC-NH2 [G1-RX, 2-RB, 3-BR]	0.403	56
(LR)8(KRL)4(KRL)2KYM-NH2 [YMG1,2-RL, 3-LR]	0.213	56
(lr)8(Krl)4(Krl)2Kgsc-NH2 [LK-G1,2-rl, 3-lr]	0.251	53
(FR)8(KRQ)4(KRW)2KGSC-NH2 [G1-RW, 2-RQ, 3-FR]	0.452	51
(RL)8(KLR)4(KLR)2KGSC-NH2 [G1,2-LR,3-RL]	0.242	54
(HK)8(KKH)4(KKL)2KGSC-NH2 [G1-KL, 2-KH, 3-HK]	0.126	49
(LR)8(KRL)4(KRL)2KRYM-NH2 [RYMG1,2-RL, 3-LR]	0.257	56
(LRLR)4(KLRLR)2KGSC-NH2 [G1,2-LRLR]	0.189	53
(LRLR)2KGSC-NH2 [G1-LRLR]	0.581	49
(LR)8(KR)4(KRLRL)2KRHC-NH2 [RHCG1-RLRL, 2-R, 3-LR]	0.37	56
(QR)8(KRT)4(KRY)2KGSC-NH2 [G1-RY, 2-RT, 3-QR]	0.178	52
(lr)8(krl)4(krl)2kgsc-NH2 [D-G1,2-rl, 3-lr]	0.246	53
(R)8(KRL)4(KRLR)2KRHC-NH2 [RHCG1-RLR, 2-RL, 3-R]	0.429	59
(RL)8(KRL)4(KLR)2KGSC-NH2 [G1-LR,2,3-RL]	0.417	53
(RLR)4(KRLR)2KRHC-NH2 [RHCG1,2-RLR]	0.214	–
(YR)8(KRT)4(KRQ)2KGSC-NH2 [G1-RQ, 2-RT, 3-YR]	0.409	54
(WR)8(KRM)4(KRF)2KGSC-NH2 [G1-RF, 2-RM, 3-WR]	0.277	51
(LR)8(KRL)4(KRL)2KRFW-NH2 [RFWG1,2-RL, 3-LR]	0.401	55

Same assay, conditions: dendrimer, lipid and mRNA complexes; N:P 0.16:1; DOTMA/DOPE w/w 10:1 to mRNA

Substance	Hydrodynamic size [nm]
(LR)8(KRL)4(KRL)2KA-NH2 [KAG1,2-RL, 3-LR]	125
(lR)8(KrL)4(kRl)2KGSC-NH2 [G1-Rl, 2-rL, 3-lR]	135
(R)8(KR)4(KR)2KRHC-NH2 [RHCG1,2,3-R]	125
(LRLR)8(KLRLR)4(KLRLR)2KGSC-NH2 [G1,2,3-LRLR]	130
(LR)8(KRL)4(KRL)2KRHC-NH2 [RHCG1,2-RL,3-LR]	134
(LR)8(DabRL)4(DabRL)2DabGSC-NH2 [DabG1,2-RL, 3-LR]	124
(LR)8(KR)4(KRLR)2KRHC-NH2 [RHCG1-RLR, 2-R, 3-LR]	121
(MR)8(KRC)4(KRC)2KGSC-NH2 [G1-RC, 2-RC, 3-MR]	121
(LR)8(KRL)4(KRE)2KGSC-NH2 [G1-RE, 2-RL, 3-LR]	134
(RLR)2KRHC-NH2 [RHCG1-RLR]	105
(BR)8(KRB)4(KRX)2KGSC-NH2 [G1-RX, 2-RB, 3-BR]	130
(LR)8(KRL)4(KRL)2KYM-NH2 [YMG1,2-RL, 3-LR]	117
(lr)8(Krl)4(Krl)2Kgsc-NH2 [LK-G1,2-rl, 3-lr]	132
(FR)8(KRQ)4(KRW)2KGSC-NH2 [G1-RW, 2-RQ, 3-FR]	133
(RL)8(KLR)4(KLR)2KGSC-NH2 [G1,2-LR,3-RL]	137
(HK)8(KKH)4(KKL)2KGSC-NH2 [G1-KL, 2-KH, 3-HK]	131
(LR)8(KRL)4(KRL)2KRYM-NH2 [RYMG1,2-RL, 3-LR]	133
(LRLR)4(KLRLR)2KGSC-NH2 [G1,2-LRLR]	130
(LRLR)2KGSC-NH2 [G1-LRLR]	122
(LR)8(KR)4(KRLRL)2KRHC-NH2 [RHCG1-RLRL, 2-R, 3-LR]	135
(QR)8(KRT)4(KRY)2KGSC-NH2 [G1-RY, 2-RT, 3-QR]	126
(lr)8(krl)4(krl)2kgsc-NH2 [D-G1,2-rl, 3-lr]	134
(R)8(KRL)4(KRLR)2KRHC-NH2 [RHCG1-RLR, 2-RL, 3-R]	119
(RL)8(KRL)4(KLR)2KGSC-NH2 [G1-LR,2,3-RL]	132
(RLR)4(KRLR)2KRHC-NH2 [RHCG1,2-RLR]	116
(YR)8(KRT)4(KRQ)2KGSC-NH2 [G1-RQ, 2-RT, 3-YR]	130
(WR)8(KRM)4(KRF)2KGSC-NH2 [G1-RF, 2-RM, 3-WR]	142
(LR)8(KRL)4(KRL)2KRFW-NH2 [RFWG1,2-RL, 3-LR]	120

Same assay, conditions: dendrimer, lipid and mRNA complexes; N:P 8:1; DOTMA/DOPE w/w 10:1 to mRNA

Substance	Hydrodynamic size [nm]
(LR)8(KRL)4(KRL)2KA-NH2 [KAG1,2-RL, 3-LR]	76
(lR)8(KrL)4(kRl)2KGSC-NH2 [G1-Rl, 2-rL, 3-lR]	74
(R)8(KR)4(KR)2KRHC-NH2 [RHCG1,2,3-R]	70
(LRLR)8(KLRLR)4(KLRLR)2KGSC-NH2 [G1,2,3-LRLR]	80
(LR)8(KRL)4(KRL)2KRHC-NH2 [RHCG1,2-RL,3-LR]	58
(LR)8(DabRL)4(DabRL)2DabGSC-NH2 [DabG1,2-RL, 3-LR]	78
(LR)8(KR)4(KRLR)2KRHC-NH2 [RHCG1-RLR, 2-R, 3-LR]	75
(MR)8(KRC)4(KRC)2KGSC-NH2 [G1-RC, 2-RC, 3-MR]	87
(LR)8(KRL)4(KRE)2KGSC-NH2 [G1-RE, 2-RL, 3-LR]	96
(RLR)2KRHC-NH2 [RHCG1-RLR]	183
(BR)8(KRB)4(KRX)2KGSC-NH2 [G1-RX, 2-RB, 3-BR]	70
(LR)8(KRL)4(KRL)2KYM-NH2 [YMG1,2-RL, 3-LR]	73
(lr)8(Krl)4(Krl)2Kgsc-NH2 [LK-G1,2-rl, 3-lr]	74
(FR)8(KRQ)4(KRW)2KGSC-NH2 [G1-RW, 2-RQ, 3-FR]	105
(RL)8(KLR)4(KLR)2KGSC-NH2 [G1,2-LR,3-RL]	89
(HK)8(KKH)4(KKL)2KGSC-NH2 [G1-KL, 2-KH, 3-HK]	103
(LR)8(KRL)4(KRL)2KRYM-NH2 [RYMG1,2-RL, 3-LR]	68
(LRLR)4(KLRLR)2KGSC-NH2 [G1,2-LRLR]	92
(LRLR)2KGSC-NH2 [G1-LRLR]	250
(LR)8(KR)4(KRLRL)2KRHC-NH2 [RHCG1-RLRL, 2-R, 3-LR]	78
(QR)8(KRT)4(KRY)2KGSC-NH2 [G1-RY, 2-RT, 3-QR]	95
(lr)8(krl)4(krl)2kgsc-NH2 [D-G1,2-rl, 3-lr]	73
(R)8(KRL)4(KRLR)2KRHC-NH2 [RHCG1-RLR, 2-RL, 3-R]	83
(RL)8(KRL)4(KLR)2KGSC-NH2 [G1-LR,2,3-RL]	80
(RLR)4(KRLR)2KRHC-NH2 [RHCG1,2-RLR]	83
(YR)8(KRT)4(KRQ)2KGSC-NH2 [G1-RQ, 2-RT, 3-YR]	100
(WR)8(KRM)4(KRF)2KGSC-NH2 [G1-RF, 2-RM, 3-WR]	80
(LR)8(KRL)4(KRL)2KRFW-NH2 [RFWG1,2-RL, 3-LR]	91
